Consider five compounds from patent US5614548A, “Quaternary amine containing ether or ester lipid derivatives and therapeutic compositions” (priority 1994, dated 1997).

Where only a bound is given, the exact number is not on record here.

Assay [1] concerns HIV-1. Put plainly: HIV-1 plaque assay, inhibitor added 60 minutes after infection. It counts as cell-based, human immunodeficiency virus type 1 (HIV-1). The note with it: for anti-HIV-1 activity: HIV-1 plaque formation, in words; for IC50: Human immunodeficiency virus 1, CEM-SS monolayers, compound from sixty minutes after infection, N = 4, read-out: Inhibitory Concentration50 HIV-1 Plaque Formation. The text has this: (§1) Dextran sulfate was used as a positive control. […] Plaques were counted at five days after infection.
(§2) By way of further background, in our assay HIV-1 syncytial plaques are seen as large, multicellular foci (10 to 25 nuclei/syncytium) that appear either brown and granular or clear. Since the number of HIV-1 syncytial plaques correlates with reverse transcriptase (RT) and p24 core antigen activity in the HIV-1 infected cell overlay fluids, the syncytial plaque assay can be used to quantify the amount of infectious virus. Reverse transcriptase activity was assayed according to a described procedure (B. J. Poeisz et al., Proc. Natl. Acad. Sci. (U.S.A.) […], 7415 (1980)). The activity of p24 core antigen induced by HIV-1 infection of CEM-SS cells was measured spectrophotometrically using the commercial Abbott EIA.
(§3) Compound E inhibited HIV-1 plaque count 43%, 83%, and 91% at concentrations of 0.2, 0.4, and 2.0 μM, respectively, compared to untreated controls. […] In other experiments addition of 0.2, 0.4 and 2.0 μM Compound E starting sixty minutes after HIV-1 infection inhibited HIV-1 plaque formation 28%, 59% and 97% respectively, compared to untreated controls.
(§4) Next investigated were the correlations of EL analog structure with anti-HIV-l and anti-cell growth. The experimental method used six serial two-fold dilutions of EL that spanned concentrations above and below a concentration that inhibits HIV-1 plaque count, cell growth (^3 H-TdR uptake into cell DNA) or in vitro PKC activity by 50% (inhibitory concentration50 =IC50) compared to an appropriate mock treated control. Table 7 summarizes data on IC50 of phosphorus and non-phosphorus compounds for HIV-1 plaque formation and cell growth.
^1 Serial 2fold dilutions of compounds are used. HIV1 plaque formatio
is measured in CEMSS cell monolayers by having compound present starting
sixty minutes after virus infection. IC50 values for HIV1 plaque
formation are x ± one SD., N = 4. CEMSS cell growth is measured in […]

Assay [2] concerns HL60 human leukemia cell line. Put plainly: HL60 cell growth inhibition (trypan blue, 48 h). Type of assay: cell-based. The settings on record: Homo sapiens, HL-60, 48 h, HL60, 48 hours; read-out: ID50 (the source's name). As for the experimental part: A number of the compounds disclosed herein have been tested against the HL60 human leukemia cell line to assess their cytotoxic potential. These analogs were investigated in parallel with ET-18-OMe which was used as the reference compound. The methodologies used in this investigation were the same as described in A. Noseda, M. Berens, C. Piantadosi, and E. J. Modest, Lipids 22, 878-883, 1987. In brief, HL60 cells at a concentration of […] were incubated in wells with one milliliter medium with the experimental drug in parallel with the same concentration of cells with ET-18-OMe (standard) or EtOH (control). After 48 hours of incubation the cells were counted using the trypan blue dye exclusion technique to determine the effect of the drug on cell growth. The experimental drug and ET-18-OMe were tested at the same concentrations, e.g., 10, 5, 2.5 and 1.25 μM.

Assay [3] relates to HIV-1. Put plainly: HIV-1 plaque assay, inhibitor added 30 minutes before infection. Type of assay: cell-based, human immunodeficiency virus type 1 (HIV-1).
Description: as §1, §2, §3

The test system of another assay is CEM-SS cells. Put plainly: CEM-SS cell growth (3H-TdR uptake). It counts as cell-based. The settings on record: Homo sapiens, 48 hours, N = 3, read-out: Inhibitory Concentration50 CEM-SS Cell Growth.
Description: as §4
formation are x ± one SD., N = 4. CEMSS cell growth is measured in
suspension cultures by treating the cells with compound for 48 hours at
37° C. and then adding 1 μCi of ^3 HTdR (S.A. = 20 Ci/mmole
for 8 hours at 37° C. to measure DNA synthesis. IC50 values
for CEMSS growth are x of a representative experiment, N = 3.

A further assay concerns Protein Kinase C. Put plainly: Protein Kinase C activity (32P incorporation into histone). It counts as biochemical, human (HL-60 cells). As for the experimental part:
PKC was prepared and assayed as described previously. See Daniel, L. W. et al., Biochem. Biophys. Res. Comm. 151, 291 (1988). In brief, HL-60 cells were grown in 75 milliliter flasks, harvested and washed with ice-cold normal saline. After centrifugation (600×g, 5 minutes, 4° Centigrade), the cell pellet was resuspended (20 mM Tris-HCl, pH 7.5, 2 mM EDTA, 10 mM EGTA, 50 mM 2-mercaptoethanol, 2 mM phenylmethylsulfonyl fluoride) and sonicated for 20 s with a stepped microprobe sonciator. Unbroken cells were removed by centrifugation as above and the supernatant centrifuged (65,000×g, 90 minutes, 4° Centigrade). The supernatant from this step (cytosol) was then fractionated on a 1×8 cm DEAE-Sephacel column after addition to sucrose to a final concentration of 10%. After equilibrating the column (20 mM Tris, pH 7.5, 0.2 mM EDTA, 0.2 mM EGTA, 50 mM 2-mercaptoethanol, 10% sucrose), the sample was loaded and unbound material was washed through with 40 milliliters of the equilibrating buffer. The PKC was eluted by a gradient from 0-0.5M NaCl in the buffer described above. Fractions of 1 milliliter were collected at 25 milliliters per hour and 0.05 milliliter aliquots assayed for PKC activity as described below. The fractions with the highest activity were pooled and used in further experiments.
The assays were done at pH 7.5 in a total volume of 0.25 milliliter and all tubes contained 25 mM Tris, 10 mM MgCl2, 40 μg per milliliter histone, 10 μM ATP (including 1 μCi of [gamma-^32 P]-ATP), 0.1 mM CaCl2, 20 μg per milliliter phosphatidylserine, 0.05 milliliter of the PKC preparation and 2.5 μM of oleoylacetylglycerol (OAG). Enzymatic activity was determined as the incorporation of ^32 P from [gamma-^32 P]-ATP) into histone in the presence of Ca^2+, phosphatidylserine, and OAG. Reactions were initiated by the addition of the enzyme preparation and halted after 20 minutes at 30° Centigrade by the addition of 0.05 milliliters of bovine serum albumin (10 milligrams per milliliter) and 1 milliliter 25% ice-cold trichloroacetic acid. The tubes were kept on ice and then filtered in a millipore vacuum box using Millipore® HA filters and washed with 25% trichloroacetic acid. The radioactivity bound to the filters was determined by scintillation spectrometry in 5 milliliters Budget Solve®. […] The analog to be tested was dissolved in ethanol, and added directly into the reaction mixture before the addition of PKC. As a control, 0.1% ethanol was included in the samples with the enzyme but with no inhibitor.

For the compound `CCCCCCCCCCCCCCCCSCC(C[N+](C)(C)CCO)OC.[Br-]` (racemic) [CJM 57, (±)-3-hexadecylthio-2-methoxy-N,N-dimethyl-N-β-hydroxyethyl-1-propyl ammonium bromide], in the assay on HIV-1 [1], the anti-HIV-1 activity result is recorded as “significant anti-HIV-1 activity”. Moreover, the inhibition at 0.2 µM in the assay on HIV-1 [1] (Human immunodeficiency virus 1, 1 h, 0.2 μM, 60 minutes after infection) is 28%; in the assay with HIV-1 [3] (Human immunodeficiency virus 1, 0.2 μM, 30 minutes before infection, Table 6), 30%; in the assay on HIV-1 [3] (Human immunodeficiency virus 1, HIV-1 plaque formation, 0.2 μM, Table 5), 43%. For the same compound, the inhibition at 0.4 µM in the assay on HIV-1 [1] (Human immunodeficiency virus 1, 1 h, 0.4 μM, 60 minutes after infection) worked out at 59%; in the assay on HIV-1 [3] (Human immunodeficiency virus 1, 0.4 μM, 30 minutes before infection, Table 6), 38%; with HIV-1 [3] (Human immunodeficiency virus 1, HIV-1 plaque formation, 0.4 μM, Table 5, read-out: Inhibition (%)), 83%. Besides, the inhibition at 2 µM with HIV-1 [1] (Human immunodeficiency virus 1, 1 h, 2.0 μM, 60 minutes after infection, read-out: Inhibition (%)) was 97%; with HIV-1 [3] (Human immunodeficiency virus 1, 2.0 μM, 30 minutes before infection, Table 6) it was 85%; in the assay with HIV-1 [3] (Human immunodeficiency virus 1, HIV-1 plaque formation, 2 μM, Table 5), 91%. The values for the IC50 (in the assay on HIV-1 [1]; in assay [2]; in the assay with CEM-SS cells) were 0.37 ± 0.01 µM, 4.6 µM and 3.2 µM, respectively. The “antiviral activity (HIV-1 plaque formation)” value in the assay with HIV-1 [3] (added before or after infection, in words) was “antiviral activity”.
Take `CCCCCCCCCCCCCCCCSCC(C[N+](C)(C)CCO)OCC` (stereo not shown) [B]: the anti-HIV-1 activity result in the assay on HIV-1 [1] is “significant anti-HIV-1 activity”. Also, the IC50 was 0.63 ± 0.18 µM in the assay with HIV-1 [1] and 5.4 µM in the assay on CEM-SS cells. For the same compound, the “Percent Protein Kinase C Activity Retained” value amounted to 92% with Protein Kinase C (1.25 μM); 84% in the assay with Protein Kinase C (2.5 μM); 70% in the assay on Protein Kinase C (5.0 μM); 70% in the assay with Protein Kinase C (10.0 μM); 66% in the assay on Protein Kinase C (20.0 μM); 47% in the assay on Protein Kinase C (40.0 μM).
Consider `CCCCCCCCCCCCCCCCCCSCC(C[N+](C)(C)CCCO)OC` (stereo not shown) [I], for which the anti-HIV-1 activity entry in the assay with HIV-1 [1] is reported as “significant anti-HIV-1 activity”. In addition, the IC50 stood at 0.52 ± 0.33 µM in the assay on HIV-1 [1] and 3.4 µM with CEM-SS cells. The “Percent Protein Kinase C Activity Retained” value with Protein Kinase C (1.25 μM) was determined as 75%; with Protein Kinase C (2.5 μM) it was 56%; in the assay on Protein Kinase C (5.0 μM) it was 49%; in the assay on Protein Kinase C (10.0 μM), 39%; in the assay on Protein Kinase C (20.0 μM), 27%; in the assay on Protein Kinase C (40.0 μM), 23%.
On to `CCCCCCCCCCCCCCCCOCC(O)(CO)CCCCCCCC` (stereo not shown) [J], for which, in the assay with HIV-1 [1], the anti-HIV-1 activity entry was “did not inhibit HIV-1 plaque formation” and the IC50 is above 10 µM. Moreover, the IC50 in the assay with CEM-SS cells is above 20 µM.
Turning to `CCCCCCCCCCCCCCCC(=O)OC[C@H](COP(=O)([O-])OCC[N+](C)(C)C)OC(=O)CCCCCCCCCCCCCCC` [dipalmitoyl-phosphatidylcholine, reference compound], the IC50 is above 1360 µM with HIV-1 [1] and above 681 µM in the assay with CEM-SS cells.

The inhibition is how much of the control response was suppressed.
